According to US20250302832A1, “PYRAZINE DERIVATIVES AND USES THEREOF” (FOGHORN THERAPEUTICS INC., priority 2022, published 2025):
Where two headings read alike, the source gives them in different places.

How the values were obtained:
HiBit-BRM fusion protein = target: T1, HiBit-BRM fusion protein (Homo sapiens, UniProt P51531); assay: HiBiT-BRM cell-based degradation assay (Nano-Glo HiBiT lytic detection, 24 h); settings: HeLa cell line expressing HiBiT-BRM; for DC50: read-out: BRM HiBit Degradation IC50
T1 construct: expressed in transfected cells
Method: (§1) Procedure: A stable HeLa cell line expressing HiBiT-BRM was generated. On day 0, 5000 cells were seeded in 40 μL of media into each well of 384-well cell culture plates. On day 1, cells were treated with 120 nL DMSO or 120 nL of 3-fold serially DMSO-diluted compounds (10 points in duplicate with 30 μM as final top dose). Subsequently plates were incubated for 24 h in a standard tissue culture incubator and equilibrated at room temperature for 15 minutes. Nano-GB HiBiT Lytic Detection System (Promega N3050) reagent was freshly prepared and 20 ul was added to each well. Upon addition of this LgBit-containing reagent, the HiBiT and LgBiT proteins associate to form the luminescent NanoBiT luciferase. The plates were shaken for 10 minutes at room temperature and the bioluminescence read using an EnVision plate reader (PerkinElmer).
(§2) The degradation % was calculated using the following formula: % degradation=100%−100%×(Lumsample−LuMLC)/(LuMHC−LuMLC). DMSO treated cells are employed as High Control (HC) and 2 μM of a known BRM/BRG1 degrader standard treated cells are employed as Low Control (LC).

[1] = target: T2, HiBit-BRG1 fusion protein (Homo sapiens, UniProt P51532); assay: HiBiT-BRG1 cell-based degradation assay (Nano-Glo HiBiT lytic detection, 24 h); settings: for Dmax: read-out: BRG1 HiBit Degradation Maximum (%); for DC50: read-out: BRMG1 HiBit Degradation IC50
T2 construct: expressed in transfected cells
Method: as §1, with “On day 1, cells were treated with 120 nL DMSO or 120 nL of 3-fold serially DMSO-diluted compounds (10 points in duplicate with 30 μM as final top dose).” left out
For measurement of BRG1 degradation, a stable HeLa cell line expressing HiBit-BRG1 and LgBit was generated. The same protocol as above was then followed.
as §2

[2] = HeLa cell line expressing HiBit-BRG1 and LgBit

T1 sequence (P51531 whole entry, the tested form may be a part): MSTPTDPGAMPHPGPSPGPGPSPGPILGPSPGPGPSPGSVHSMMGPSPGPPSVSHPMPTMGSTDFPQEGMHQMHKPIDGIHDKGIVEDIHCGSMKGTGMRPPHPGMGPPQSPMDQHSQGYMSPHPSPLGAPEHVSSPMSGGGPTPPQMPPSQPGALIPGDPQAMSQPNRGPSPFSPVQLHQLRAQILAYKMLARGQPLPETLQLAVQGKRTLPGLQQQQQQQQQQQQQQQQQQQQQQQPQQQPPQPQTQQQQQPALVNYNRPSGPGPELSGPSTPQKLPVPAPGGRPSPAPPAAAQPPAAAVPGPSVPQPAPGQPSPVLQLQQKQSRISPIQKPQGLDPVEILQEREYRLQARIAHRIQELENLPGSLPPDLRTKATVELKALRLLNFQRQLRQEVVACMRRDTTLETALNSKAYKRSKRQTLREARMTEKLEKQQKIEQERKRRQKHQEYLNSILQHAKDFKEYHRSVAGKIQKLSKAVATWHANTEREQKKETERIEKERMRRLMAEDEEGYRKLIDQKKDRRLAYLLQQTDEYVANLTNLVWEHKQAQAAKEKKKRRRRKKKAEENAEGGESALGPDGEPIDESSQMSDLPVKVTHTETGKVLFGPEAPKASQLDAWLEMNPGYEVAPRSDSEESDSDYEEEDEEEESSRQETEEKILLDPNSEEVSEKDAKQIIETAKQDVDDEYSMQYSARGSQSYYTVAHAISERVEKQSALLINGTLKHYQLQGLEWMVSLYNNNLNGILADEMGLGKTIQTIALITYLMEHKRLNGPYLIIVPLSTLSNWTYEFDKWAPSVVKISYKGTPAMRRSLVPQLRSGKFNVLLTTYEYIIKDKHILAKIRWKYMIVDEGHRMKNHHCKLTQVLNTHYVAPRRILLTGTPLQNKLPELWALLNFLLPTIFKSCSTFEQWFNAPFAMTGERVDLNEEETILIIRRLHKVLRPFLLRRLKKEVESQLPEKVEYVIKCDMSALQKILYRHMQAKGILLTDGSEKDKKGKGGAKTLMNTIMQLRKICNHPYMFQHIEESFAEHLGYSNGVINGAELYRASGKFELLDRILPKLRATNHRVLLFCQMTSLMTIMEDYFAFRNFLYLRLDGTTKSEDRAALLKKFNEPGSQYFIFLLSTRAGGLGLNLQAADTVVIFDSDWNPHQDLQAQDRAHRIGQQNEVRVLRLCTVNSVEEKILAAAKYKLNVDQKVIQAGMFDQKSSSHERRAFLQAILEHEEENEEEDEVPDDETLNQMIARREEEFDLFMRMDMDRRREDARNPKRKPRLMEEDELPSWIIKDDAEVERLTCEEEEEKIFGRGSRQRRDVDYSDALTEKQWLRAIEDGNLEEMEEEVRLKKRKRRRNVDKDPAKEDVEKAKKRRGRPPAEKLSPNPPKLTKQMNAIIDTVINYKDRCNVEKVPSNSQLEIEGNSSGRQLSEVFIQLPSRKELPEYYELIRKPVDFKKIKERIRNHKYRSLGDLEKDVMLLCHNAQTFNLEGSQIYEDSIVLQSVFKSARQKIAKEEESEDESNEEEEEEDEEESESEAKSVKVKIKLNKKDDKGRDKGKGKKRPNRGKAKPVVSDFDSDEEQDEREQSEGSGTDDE
T2 sequence (P51532 whole entry, the tested form may be a part): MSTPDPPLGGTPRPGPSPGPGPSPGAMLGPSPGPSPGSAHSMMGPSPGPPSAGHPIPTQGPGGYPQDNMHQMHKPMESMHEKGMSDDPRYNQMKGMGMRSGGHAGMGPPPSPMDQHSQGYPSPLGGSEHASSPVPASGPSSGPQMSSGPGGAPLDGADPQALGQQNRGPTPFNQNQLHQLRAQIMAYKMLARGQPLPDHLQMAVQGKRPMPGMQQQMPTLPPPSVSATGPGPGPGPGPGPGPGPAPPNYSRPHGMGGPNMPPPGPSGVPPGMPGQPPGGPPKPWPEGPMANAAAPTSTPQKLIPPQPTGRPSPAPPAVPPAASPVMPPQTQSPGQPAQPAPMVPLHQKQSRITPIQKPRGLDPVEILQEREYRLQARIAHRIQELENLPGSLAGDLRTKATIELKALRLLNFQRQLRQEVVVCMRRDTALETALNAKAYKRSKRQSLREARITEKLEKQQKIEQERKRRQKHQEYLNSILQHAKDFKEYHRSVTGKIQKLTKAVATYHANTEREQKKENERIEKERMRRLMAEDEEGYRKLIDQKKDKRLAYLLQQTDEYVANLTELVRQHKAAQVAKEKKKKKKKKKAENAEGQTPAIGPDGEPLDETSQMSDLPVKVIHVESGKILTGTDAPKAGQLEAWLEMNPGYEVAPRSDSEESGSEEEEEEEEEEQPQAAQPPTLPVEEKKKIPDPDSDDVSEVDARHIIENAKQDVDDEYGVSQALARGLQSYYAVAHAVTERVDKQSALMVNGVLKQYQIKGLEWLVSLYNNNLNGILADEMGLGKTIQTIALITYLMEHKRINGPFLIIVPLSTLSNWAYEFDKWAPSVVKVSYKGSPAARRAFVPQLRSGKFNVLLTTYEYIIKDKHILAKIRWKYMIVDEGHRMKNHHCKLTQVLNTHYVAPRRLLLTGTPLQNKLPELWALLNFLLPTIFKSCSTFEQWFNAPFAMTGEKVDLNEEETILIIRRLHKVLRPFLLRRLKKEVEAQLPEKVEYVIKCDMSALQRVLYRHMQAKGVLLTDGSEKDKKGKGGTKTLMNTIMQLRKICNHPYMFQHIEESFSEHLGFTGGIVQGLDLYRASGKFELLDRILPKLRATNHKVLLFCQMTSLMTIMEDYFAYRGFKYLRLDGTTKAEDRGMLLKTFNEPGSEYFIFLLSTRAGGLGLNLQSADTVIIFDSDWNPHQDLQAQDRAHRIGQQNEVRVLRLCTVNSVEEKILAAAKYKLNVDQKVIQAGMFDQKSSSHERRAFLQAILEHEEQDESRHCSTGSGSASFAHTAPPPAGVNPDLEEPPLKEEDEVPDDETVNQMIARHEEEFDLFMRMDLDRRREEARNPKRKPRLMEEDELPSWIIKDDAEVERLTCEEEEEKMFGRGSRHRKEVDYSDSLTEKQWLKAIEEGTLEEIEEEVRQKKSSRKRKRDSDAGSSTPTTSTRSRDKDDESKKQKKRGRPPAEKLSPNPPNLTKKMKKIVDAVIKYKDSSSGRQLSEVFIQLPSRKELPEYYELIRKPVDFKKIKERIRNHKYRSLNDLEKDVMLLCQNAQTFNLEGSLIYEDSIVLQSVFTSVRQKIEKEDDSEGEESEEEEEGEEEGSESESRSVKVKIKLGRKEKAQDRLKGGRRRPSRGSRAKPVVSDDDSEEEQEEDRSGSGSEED

| Compound | DC50 (HiBit-BRM fusion protein) [nM] | Dmax [1, 2] [%] | DC50 [1, 2] [nM] | Dmax ([1]; HeLa) [%] | BRM HiBit Degradation Maximum (%) (HiBit-BRM fusion protein) |
| --- | --- | --- | --- | --- | --- |
| Cc1ncsc1-c1ccc([C@H](C)NC(=O)[C@@H]2C[C@@H](O)CN2C(=O)[C@@H](c2cc(N3CCC(N4CC(c5cc6nnc(-c7ccccc7O)cc6n5C)C4)CC3)no2)C(C)C)cc1 [Compound 12, (2S,4R)-4-hydroxy-1-((R)-2-(3-(4-(3-(3-(2-hydroxyphenyl)-5-methyl-5H-pyrrolo[3,2-c]pyridazin-6-yl)azetidin-1-yl)piperidin-1-yl)isoxazol-5-yl)-3-methylbutanoyl)-N-((S)-1-(4-(4-methylthiazol-5-yl)phenyl)ethyl)pyrrolidine-2-carboxamide] | < 10 | > 75 | > 10 |  | A (“A” indicates maximum degradation ≥75%) |
| Cc1ncsc1-c1ccc([C@H](C)NC(=O)[C@@H]2C[C@@H](O)CN2C(=O)[C@@H](c2cc(N3CCC(C(=O)N4CC(c5cc6nnc(-c7ccccc7O)cc6n5C)C4)CC3)no2)C(C)C)cc1 [Compound 13, (2S,4R)-4-hydroxy-1-[(2R)-2-[3-(4-{3-[3-(2-hydroxyphenyl)-5-methylpyrrolo[3,2-c]pyridazin-6-yl]azetidine-1-carbonyl}piperidin-1-yl)-1,2-oxazol-5-yl]-3-methylbutanoyl]-N-[(1S)-1-[4-(4-methyl-1,3-thiazol-5-yl)phenyl]ethyl]pyrrolidine-2-carboxamide] | < 10 | > 50 | > 100 |  | A (“A” indicates maximum degradation ≥75%) |
| Cc1ncsc1-c1ccc([C@H](C)NC(=O)[C@@H]2C[C@@H](O)CN2C(=O)[C@@H](c2cc(OCCN3CCC(c4cc5nnc(-c6ccccc6O)cc5[nH]4)CC3)no2)C(C)C)cc1 [Compound 17, (2S,4R)-4-hydroxy-1-[(2R)-2-[3-(2-{4-[3-(2-hydroxyphenyl)-5H-pyrrolo[3,2-c]pyridazin-6-yl]piperidin-1-yl}ethoxy)-1,2-oxazol-5-yl]-3-methylbutanoyl]-N-[(1S)-1-[4-(4-methyl-1,3-thiazol-5-yl)phenyl]ethyl]pyrrolidine-2-carboxamide] | < 10 | > 75 | > 10 |  | A (“A” indicates maximum degradation ≥75%) |
| Cc1ncsc1-c1ccc([C@H](C)NC(=O)[C@@H]2C[C@@H](O)CN2C(=O)[C@H](c2cc(-c3cnc(N4CCC(c5cc6nnc(-c7ccccc7O)cc6[nH]5)CC4)nc3)no2)C(C)C)cc1 [Compound 19, (2S,4R)-4-hydroxy-1-[(2S)-2-[3-(2-{4-[3-(2-hydroxyphenyl)-5H-pyrrolo[3,2-c]pyridazin-6-yl]piperidin-1-yl}pyrimidin-5-yl)-1,2-oxazol-5-yl]-3-methylbutanoyl]-N-[(1S)-1-[4-(4-methyl-1,3-thiazol-5-yl)phenyl]ethyl]pyrrolidine-2-carboxamide] | > 10 | < 50 |  |  | B (“B” indicates maximum degradation ≥50%) |
| Cc1ncsc1-c1ccc([C@H](C)NC(=O)[C@@H]2C[C@@H](O)CN2C(=O)[C@@H](c2cc(-c3cnc(N4CCC(c5cc6nnc(-c7ccccc7O)cc6n5C)CC4)nc3)no2)C(C)C)cc1 [Compound 21, (2S,4R)-4-hydroxy-1-((R)-2-(3-(2-(4-(3-(2-hydroxyphenyl)-5-methyl-5H-pyrrolo[3,2-c]pyridazin-6-yl)piperidin-1-yl)pyrimidin-5-yl)isoxazol-5-yl)-3-methylbutanoyl)-N—((S)-1-(4-(4-methylthiazol-5-yl)phenyl)ethyl) pyrrolidine-2-carboxamide] | < 10 | > 50 | < 10 |  | A (“A” indicates maximum degradation ≥75%) |
| Cc1ncsc1-c1ccc([C@H](C)NC(=O)[C@@H]2C[C@@H](O)CN2C(=O)[C@H](c2cc(-c3cnc(N4CCC(c5cc6nnc(-c7ccccc7O)cc6n5C)CC4)nc3)no2)C(C)C)cc1 [Compound 22, (2S,4R)-4-hydroxy-1-((S)-2-(3-(2-(4-(3-(2-hydroxyphenyl)-5-methyl-5H-pyrrolo[3,2-c]pyridazin-6-yl)piperidin-1-yl)pyrimidin-5-yl)isoxazol-5-yl)-3-methylbutanoyl)-N—((S)-1-(4-(4-methylthiazol-5-yl)phenyl)ethyl)pyrrolidine-2-carboxamide] | > 100 |  |  | < 50 | B (“B” indicates maximum degradation ≥50%) |
| CCn1c(C2CCN(c3ncc(-c4cc([C@H](C(=O)N5C[C@H](O)C[C@H]5C(=O)N[C@@H](C)c5ccc(-c6scnc6C)cc5)C(C)C)on4)cn3)CC2)cc2nnc(-c3ccccc3O)cc21 [Compound 23, (2S,4R)-1-[(2R)-2-[3-(2-{4-[5-ethyl-3-(2-hydroxyphenyl)pyrrolo[3,2-c]pyridazin-6-yl]piperidin-1-yl}pyrimidin-5-yl)-1,2-oxazol-5-yl]-3-methylbutanoyl]-4-hydroxy-N-[(1S)-1-[4-(4-methyl-1,3-thiazol-5-yl)phenyl]ethyl]pyrrolidine-2-carboxamide] | < 10 | > 50 | > 10 |  | A (“A” indicates maximum degradation ≥75%) |
| CCn1c(C2CCN(c3ncc(-c4cc([C@@H](C(=O)N5C[C@H](O)C[C@H]5C(=O)N[C@@H](C)c5ccc(-c6scnc6C)cc5)C(C)C)on4)cn3)CC2)cc2nnc(-c3ccccc3O)cc21 [Compound 24, (2S,4R)-1-[(2S)-2-[3-(2-{4-[5-ethyl-3-(2-hydroxyphenyl)pyrrolo[3,2-c]pyridazin-6-yl]piperidin-1-yl}pyrimidin-5-yl)-1,2-oxazol-5-yl]-3-methylbutanoyl]-4-hydroxy-N-[(1S)-1-[4-(4-methyl-1,3-thiazol-5-yl)phenyl]ethyl]pyrrolidine-2-carboxamide] | > 10 | < 50 |  |  | B (“B” indicates maximum degradation ≥50%) |

Continued, in another order:

| DC50 (HiBit-BRM fusion protein) [nM] | Dmax [1, 2] [%] | DC50 [1, 2] [nM] | Dmax ([1]; HeLa) [%] | Compound | BRM HiBit Degradation Maximum (%) (HiBit-BRM fusion protein) |
| --- | --- | --- | --- | --- | --- |
| > 10 | > 50 | > 10 |  | Cc1ncsc1-c1ccc([C@H](C)NC(=O)[C@@H]2C[C@@H](O)CN2C(=O)[C@@H](c2cc(OCCN3CC(c4cc5nnc(-c6ccccc6O)cc5n4C(F)F)C3)no2)C(C)C)cc1 [Compound 14, (2S,4R)-1-((R)-2-(3-(2-(3-(5-(difluoromethyl)-3-(2-hydroxyphenyl)-5H-pyrrolo[3,2-c]pyridazin-6-yl)azetidin-1-yl)ethoxy)isoxazol-5-yl)-3-methylbutanoyl)-4-hydroxy-N—((S)-1-(4-(4-methylthiazol-5-yl)phenyl)ethyl)pyrrolidine-2-carboxamide] | A (“A” indicates maximum degradation ≥75%) |
| > 100 | < 50 |  |  | Cc1ncsc1-c1ccc([C@H](C)NC(=O)[C@@H]2C[C@@H](O)CN2C(=O)[C@@H](c2cc(OCC(=O)N3CC(c4cc5nnc(-c6ccccc6O)cc5n4C)C3)no2)C(C)C)cc1 [Compound 15, (2S,4R)-4-hydroxy-1-((R)-2-(3-(2-(3-(3-(2-hydroxyphenyl)-5-methyl-5H-pyrrolo[3,2-c]pyridazin-6-yl)azetidin-1-yl)-2-oxoethoxy)isoxazol-5-yl)-3-methylbutanoyl)-N-((S)-1-(4-(4-methylthiazol-5-yl)phenyl)ethyl)pyrrolidine-2-carboxamide] | A (“A” indicates maximum degradation ≥75%) |
|  | < 50 |  |  | Cc1ncsc1-c1ccc([C@H](C)NC(=O)[C@@H]2C[C@@H](O)CN2C(=O)[C@@H](c2cc(OCCN3CC(c4cc5nnc(-c6ccccc6O)cc5n4C4COC4)C3)no2)C(C)C)cc1 [Compound 16, (2S,4R)-4-hydroxy-1-((R)-2-(3-(2-(3-(3-(2-hydroxyphenyl)-5-(oxetan-3-yl)-5H-pyrrolo[3,2-c]pyridazin-6-yl)azetidin-1-yl)ethoxy)isoxazol-5-yl)-3-methylbutanoyl)-N—((S)-1-(4-(4-methylthiazol-5-yl)phenyl)ethyl)pyrrolidine-2-carboxamide] | C (“C” indicates maximum degradation <50%) |
| < 10 | > 75 | < 10 |  | Cc1ncsc1-c1ccc([C@H](C)NC(=O)[C@@H]2C[C@@H](O)CN2C(=O)[C@@H](c2cc(OCCN3CCC(c4cc5nnc(-c6ccccc6O)cc5n4C)CC3)no2)C(C)C)cc1 [Compound 20, (2S,4R)-4-hydroxy-1-[(2R)-2-[3-(2-{4-[3-(2-hydroxyphenyl)-5-methylpyrrolo[3,2-c]pyridazin-6-yl]piperidin-1-yl}ethoxy)-1,2-oxazol-5-yl]-3-methylbutanoyl]-N-[(1S)-1-[4-(4-methyl-1,3-thiazol-5-yl)phenyl]ethyl]pyrrolidine-2-carboxamide] | A (“A” indicates maximum degradation ≥75%) |
